In US7579344B2, “Pyrimidine derivatives possessing cell-cycle inhibitors activity” (Astrazeneca AB, priority 2003, dated 2009):

Molecular target: T1, CDK2/Cyclin E (Homo sapiens, UniProt P24941)
T1 construct: The open reading frames of CDK2 and Cyclin E were isolated; made in house; host or cells: Sf21 (Spodoptera frugiperda) insect cells, baculovirus co-infection; the GST-Rb substrate was made in E. coli BL21 (DE3) pLysS
Assay: in vitro kinase Scintillation Proximity Assay, incorporation of [γ-33-P]-ATP into GST-Rb
Type: biochemical
Conditions: GST-Rb substrate, 0.2 μM ATP, 60 minutes at room temperature
Protocol: The compounds were tested in an in vitro kinase assay in 96 well format using Scintillation Proximity Assay (SPA - obtained from Amersham) for measuring incorporation of [γ-33-P]-Adenosine Triphosphate into a test substrate (GST-Retinoblastoma protein; GST-Rb). In each well was placed the compound to be tested (diluted in DMSO and water to correct concentrations) and in control wells either roscovitine as an inhibitor control or DMSO as a positive control.
Approximately 0.2 μl of CDK2/Cyclin E partially-purified enzyme (amount dependent on enzyme activity) diluted in 25 μl incubation buffer was added to each well then 20 μl of GST-Rb/ATP/ATP33 mixture (containing 0.5 μg GST-Rb and 0.2 μM ATP and 0.14 μCi [γ-33-P]-Adenosine Triphosphate in incubation buffer), and the resulting mixture shaken gently, then incubated at room temperature for 60 minutes.
To each well was then added 150 μL stop solution containing (0.8 mg/well of Protein A-PVT SPA bead (Amersham)), 20 pM/well of Anti-Glutathione Transferase, Rabbit IgG (obtained from Molecular Probes), 61 mM EDTA and 50 mM HEPES pH 7.5 containing 0.05% sodium azide.
The plates were sealed with Topseal-S plate sealers, left for two hours then spun at 2500 rpm, 1124 xg., for 5 minutes. The plates were read on a Topcount for 30 seconds per well.
The incubation buffer used to dilute the enzyme and substrate mixes contained 50 mM HEPES pH7.5, 10 mM MnCl2, 1 mM DTT, 100 μM Sodium vanadate, 100 μM NaF, 10 mM Sodium Glycerophosphate, BSA (1 mg/ml final).
In this assay only part of the retinoblastoma protein (Science 1987 Mar. 13;235(4794):1394-1399; Lee W. H., Bookstein R., Hong F., Young L. J., Shew J. Y., Lee E. Y.) was used, fused to a GST tag. […]
The open reading frames of CDK2 and Cyclin E were isolated by reverse transcriptase-PCR using HeLa cell and activated T cell mRNA as a template and cloned into the insect expression vector pVL1393 (obtained from Invitrogen 1995 catalogue number: V1392-20). […]

IC50 | SMILES
21 nM | c1ccc(Nc2nccc(-c3cnc4n3CCCC4)n2)cc1 [Example 2, 2-anilino-4-(5,6,7,8-tetrahydroimidazo[1,2-a]pyridin-3-yl)pyrimidine]
42 nM | c1ccc(Nc2nccc(-c3cnc4n3CCOC4)n2)cc1 [Example 5, 2-Anilino-4-(5,6-dihydro-8H-imidazo[2,1-c][1,4]oxazin-3-yl)pyrimidine]
13 nM | COCCNS(=O)(=O)c1ccc(Nc2nccc(-c3cnc4n3CCOC4)n2)cc1 [Example 9]
